Molecular target: T1, human recombinant PDE5 (Homo sapiens, UniProt O76074)
T1 construct: made in house
Assay: Phosphodiesterase [3H] cGMP-SPA enzyme assay (inhibition of PDE5 in vitro)
Format: biochemical
Details: human recombinant PDE5 expressed in a bacculovirus system; substance concentration at which the reaction rate is reduced by 50%; read-out: PDE V IC50
Description: To test the inhibiting action, the “Phosphodiesterase [^3H] cGMP-SPA enzyme assay” from Amersham Life Science was used. The test was carried out according to the manufacturer's test protocol. Use was made of human recombinant PDE5 which was expressed in a bacculovirus system. The substance concentration at which the reaction rate is reduced by 50% was measured.

| IC50 | SMILES |
| --- | --- |
| 19 nM | CCCc1nc(C)c2c(=O)[nH]c(-c3cc(S(=O)(=O)NCCNCC)ccc3OCC)nn12 [Example 3, 4-Ethoxy-N-[2-(ethylamino)ethyl]-3-(5-methyl-4-oxo-7-propyl-3,4-dihydroimidazo[5,1-f]-1,2,4-triazin-2-yl)benzenesulphonamide] |
| 2.4 nM | CCCc1nc(C)c2c(=O)[nH]c(-c3cc(S(=O)(=O)NCCN)ccc3OCC)nn12 [Example 4, N-(2-aminoethyl)-4-ethoxy-3-(5-methyl-4-oxo-7-propyl-3,4-dihydroimidazo[5,1-f]-1,2,4-triazin-2-yl)benzenesulphonamide] |
| 19 nM | CCCc1nc(C)c2c(=O)[nH]c(-c3cc(S(=O)(=O)N4CC[N+]([O-])(CC)CC4)ccc3OCC)nn12 [Example 2, 2-{2-Ethoxy-5-[(4-ethyl-4-hydroxy-4λ^5-piperazin-1-yl)sulphonyl]phenyl}-5-methyl-7-propylimidazo[5,1-f]-1,2,4-triazin-4(3H)-one] |
| 4.2 nM | CCCc1nc(C)c2c(=O)[nH]c(-c3cc(S(=O)(=O)N4CCNCC4)ccc3OCC)nn12 [Example 1, 2-[2-Ethoxy-5-(1-piperazinylsulphonyl)phenyl]-5-methyl-7-propylimidazo-[5,1-f]-1,2,4-triazin-4(3H)-one] |

Source: US20060160810A1, “2-Alkoxyphenyl substituted imidazotriazinones” (priority 2001, published 2006)
